Source: ChEMBL document CHEMBL5465560, “Selectivity Literature for EUbOPEN Chemogenomic Library” (2024)

Tests used:
[1] = biological target: Mast/stem cell growth factor receptor Kit (Homo sapiens, UniProt P10721); experiment: Selectivity interaction (KinomeScan (DiscoverX)) EUB0000229b KIT; settings: at 10 µM
[2] = biological target: Protein kinase C delta type (Homo sapiens) (UniProt Q05655); experiment: Selectivity interaction (KinomeScan (DiscoverX)) EUB0000595a PRKCD; settings: at 10 µM
[3] = biological target: G protein-coupled receptor kinase 4 (Homo sapiens) (UniProt P32298); experiment: Selectivity interaction (KinomeScan (DiscoverX)) EUB0001079a GRK4; settings: at 1 µM
[4] = biological target: T1, cAMP-dependent protein kinase catalytic subunit PRKX (Homo sapiens) (UniProt P51817); settings: at 10 µM
T1 sequence (whole entry): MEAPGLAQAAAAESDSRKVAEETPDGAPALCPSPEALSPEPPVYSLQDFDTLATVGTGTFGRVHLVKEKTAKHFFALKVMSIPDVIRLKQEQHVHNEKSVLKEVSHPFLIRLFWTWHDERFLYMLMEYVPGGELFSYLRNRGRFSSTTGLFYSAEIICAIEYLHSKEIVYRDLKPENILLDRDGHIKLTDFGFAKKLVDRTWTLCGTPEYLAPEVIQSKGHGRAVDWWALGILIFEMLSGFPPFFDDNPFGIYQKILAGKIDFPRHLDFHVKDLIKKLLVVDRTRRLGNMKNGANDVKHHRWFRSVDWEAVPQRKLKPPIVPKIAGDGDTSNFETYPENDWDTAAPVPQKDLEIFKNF

[5] = biological target: T2, Discoidin domain-containing receptor 2 (Homo sapiens) (UniProt Q16832); experiment: Selectivity interaction (Upstate Kinase Profiler service (Millipore)) EUB0000056c DDR2; settings: at 1 µM
T2 sequence (whole entry): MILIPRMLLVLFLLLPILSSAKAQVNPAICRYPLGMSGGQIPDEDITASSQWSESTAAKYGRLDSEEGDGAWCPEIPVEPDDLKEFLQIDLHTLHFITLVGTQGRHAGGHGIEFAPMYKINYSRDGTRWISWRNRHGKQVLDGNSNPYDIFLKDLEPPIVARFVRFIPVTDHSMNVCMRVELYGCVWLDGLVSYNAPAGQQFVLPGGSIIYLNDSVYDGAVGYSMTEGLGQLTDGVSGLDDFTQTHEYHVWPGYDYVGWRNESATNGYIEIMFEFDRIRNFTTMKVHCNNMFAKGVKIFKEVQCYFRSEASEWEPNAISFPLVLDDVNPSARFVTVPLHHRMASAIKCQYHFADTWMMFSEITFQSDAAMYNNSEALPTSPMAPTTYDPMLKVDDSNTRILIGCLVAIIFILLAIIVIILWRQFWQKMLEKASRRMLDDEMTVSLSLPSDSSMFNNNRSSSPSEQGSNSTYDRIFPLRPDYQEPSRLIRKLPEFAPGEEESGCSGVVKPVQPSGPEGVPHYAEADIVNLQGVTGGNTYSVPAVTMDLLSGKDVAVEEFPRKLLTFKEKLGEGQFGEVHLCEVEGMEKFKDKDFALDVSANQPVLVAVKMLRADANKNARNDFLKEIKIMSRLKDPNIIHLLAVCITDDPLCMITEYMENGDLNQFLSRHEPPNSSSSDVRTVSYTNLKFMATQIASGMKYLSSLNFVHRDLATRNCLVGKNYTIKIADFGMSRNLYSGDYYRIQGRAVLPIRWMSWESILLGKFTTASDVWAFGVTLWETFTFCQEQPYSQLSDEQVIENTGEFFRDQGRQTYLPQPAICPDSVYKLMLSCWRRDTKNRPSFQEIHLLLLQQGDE

[6] = biological target: Tyrosine-protein kinase BTK (Homo sapiens, UniProt Q06187); experiment: Selectivity interaction (SelectScreen profiling (Invitrogen)) EUB0000607a BTK; settings: at 2 µM
[7] = biological target: T3, Activin receptor type-1B (Homo sapiens) (UniProt P36896); experiment: Selectivity interaction (KinomeScan (DiscoverX)) EUB0000618a ACVR1B; settings: at 10 µM
T3 sequence (whole entry): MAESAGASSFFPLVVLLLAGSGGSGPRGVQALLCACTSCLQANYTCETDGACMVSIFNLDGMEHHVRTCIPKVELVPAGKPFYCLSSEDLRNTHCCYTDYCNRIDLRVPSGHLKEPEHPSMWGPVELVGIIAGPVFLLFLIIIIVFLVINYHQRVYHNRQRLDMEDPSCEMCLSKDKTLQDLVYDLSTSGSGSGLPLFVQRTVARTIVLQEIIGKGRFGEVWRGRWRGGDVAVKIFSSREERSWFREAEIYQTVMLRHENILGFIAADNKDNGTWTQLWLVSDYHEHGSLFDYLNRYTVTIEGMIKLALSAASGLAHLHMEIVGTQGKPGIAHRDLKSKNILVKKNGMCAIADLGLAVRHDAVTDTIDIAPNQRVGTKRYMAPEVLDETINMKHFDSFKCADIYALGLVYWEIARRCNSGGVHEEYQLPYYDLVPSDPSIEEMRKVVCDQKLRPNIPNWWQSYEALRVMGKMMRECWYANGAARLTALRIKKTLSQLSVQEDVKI

[8] = biological target: Serine/threonine-protein kinase WNK2 (Homo sapiens) (UniProt Q9Y3S1); experiment: Selectivity interaction (ActivX KiNativ screen (kinase selectivity in THP-1 cell lysates)) EUB0000639a WNK2; format: subcellular; settings: lysate, at 0.01 µM
[9] = biological target: 1-phosphatidylinositol 3-phosphate 5-kinase (Homo sapiens) (UniProt Q9Y2I7); experiment: Selectivity interaction (ActivX KiNativ screen (kinase selectivity in THP-1 cell lysates)) EUB0000639a PIKFYVE; format: subcellular; settings: lysate
[10] = biological target: T2, Discoidin domain-containing receptor 2 (Homo sapiens); experiment: Selectivity interaction (Kinase panel (Invitrogen)) EUB0000639a DDR2; settings: at 200 nM
[11] = biological target: Serine/threonine-protein kinase PRP4 homolog (Homo sapiens) (UniProt Q13523); experiment: Selectivity interaction (ActivX KiNativ screen (kinase selectivity in THP-1 cell lysates)) EUB0000639a PRPF4; format: subcellular; settings: lysate, at 1 µM
[12] = biological target: T4, Phosphatidylinositol 5-phosphate 4-kinase type-2 beta (Homo sapiens) (UniProt P78356); experiment: Selectivity interaction (KinomeScan (DiscoverX)) EUB0000655a PIP4K2B; settings: at 10 µM
T4 sequence (whole entry): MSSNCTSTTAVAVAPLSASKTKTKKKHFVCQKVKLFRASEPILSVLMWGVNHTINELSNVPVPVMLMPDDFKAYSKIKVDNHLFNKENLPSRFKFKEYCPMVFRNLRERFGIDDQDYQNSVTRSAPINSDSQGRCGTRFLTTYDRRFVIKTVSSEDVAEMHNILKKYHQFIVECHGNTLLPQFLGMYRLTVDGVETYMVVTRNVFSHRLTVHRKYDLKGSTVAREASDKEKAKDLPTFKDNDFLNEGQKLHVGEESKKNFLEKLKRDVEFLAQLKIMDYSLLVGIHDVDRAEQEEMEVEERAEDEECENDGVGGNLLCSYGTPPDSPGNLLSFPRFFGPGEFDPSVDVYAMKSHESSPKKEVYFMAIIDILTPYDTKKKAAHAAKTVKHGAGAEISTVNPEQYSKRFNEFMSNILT

Chain of 1-phosphatidylinositol 3-phosphate 5-kinase (Homo sapiens) (Q9Y2I7 whole entry, the tested form may be a part): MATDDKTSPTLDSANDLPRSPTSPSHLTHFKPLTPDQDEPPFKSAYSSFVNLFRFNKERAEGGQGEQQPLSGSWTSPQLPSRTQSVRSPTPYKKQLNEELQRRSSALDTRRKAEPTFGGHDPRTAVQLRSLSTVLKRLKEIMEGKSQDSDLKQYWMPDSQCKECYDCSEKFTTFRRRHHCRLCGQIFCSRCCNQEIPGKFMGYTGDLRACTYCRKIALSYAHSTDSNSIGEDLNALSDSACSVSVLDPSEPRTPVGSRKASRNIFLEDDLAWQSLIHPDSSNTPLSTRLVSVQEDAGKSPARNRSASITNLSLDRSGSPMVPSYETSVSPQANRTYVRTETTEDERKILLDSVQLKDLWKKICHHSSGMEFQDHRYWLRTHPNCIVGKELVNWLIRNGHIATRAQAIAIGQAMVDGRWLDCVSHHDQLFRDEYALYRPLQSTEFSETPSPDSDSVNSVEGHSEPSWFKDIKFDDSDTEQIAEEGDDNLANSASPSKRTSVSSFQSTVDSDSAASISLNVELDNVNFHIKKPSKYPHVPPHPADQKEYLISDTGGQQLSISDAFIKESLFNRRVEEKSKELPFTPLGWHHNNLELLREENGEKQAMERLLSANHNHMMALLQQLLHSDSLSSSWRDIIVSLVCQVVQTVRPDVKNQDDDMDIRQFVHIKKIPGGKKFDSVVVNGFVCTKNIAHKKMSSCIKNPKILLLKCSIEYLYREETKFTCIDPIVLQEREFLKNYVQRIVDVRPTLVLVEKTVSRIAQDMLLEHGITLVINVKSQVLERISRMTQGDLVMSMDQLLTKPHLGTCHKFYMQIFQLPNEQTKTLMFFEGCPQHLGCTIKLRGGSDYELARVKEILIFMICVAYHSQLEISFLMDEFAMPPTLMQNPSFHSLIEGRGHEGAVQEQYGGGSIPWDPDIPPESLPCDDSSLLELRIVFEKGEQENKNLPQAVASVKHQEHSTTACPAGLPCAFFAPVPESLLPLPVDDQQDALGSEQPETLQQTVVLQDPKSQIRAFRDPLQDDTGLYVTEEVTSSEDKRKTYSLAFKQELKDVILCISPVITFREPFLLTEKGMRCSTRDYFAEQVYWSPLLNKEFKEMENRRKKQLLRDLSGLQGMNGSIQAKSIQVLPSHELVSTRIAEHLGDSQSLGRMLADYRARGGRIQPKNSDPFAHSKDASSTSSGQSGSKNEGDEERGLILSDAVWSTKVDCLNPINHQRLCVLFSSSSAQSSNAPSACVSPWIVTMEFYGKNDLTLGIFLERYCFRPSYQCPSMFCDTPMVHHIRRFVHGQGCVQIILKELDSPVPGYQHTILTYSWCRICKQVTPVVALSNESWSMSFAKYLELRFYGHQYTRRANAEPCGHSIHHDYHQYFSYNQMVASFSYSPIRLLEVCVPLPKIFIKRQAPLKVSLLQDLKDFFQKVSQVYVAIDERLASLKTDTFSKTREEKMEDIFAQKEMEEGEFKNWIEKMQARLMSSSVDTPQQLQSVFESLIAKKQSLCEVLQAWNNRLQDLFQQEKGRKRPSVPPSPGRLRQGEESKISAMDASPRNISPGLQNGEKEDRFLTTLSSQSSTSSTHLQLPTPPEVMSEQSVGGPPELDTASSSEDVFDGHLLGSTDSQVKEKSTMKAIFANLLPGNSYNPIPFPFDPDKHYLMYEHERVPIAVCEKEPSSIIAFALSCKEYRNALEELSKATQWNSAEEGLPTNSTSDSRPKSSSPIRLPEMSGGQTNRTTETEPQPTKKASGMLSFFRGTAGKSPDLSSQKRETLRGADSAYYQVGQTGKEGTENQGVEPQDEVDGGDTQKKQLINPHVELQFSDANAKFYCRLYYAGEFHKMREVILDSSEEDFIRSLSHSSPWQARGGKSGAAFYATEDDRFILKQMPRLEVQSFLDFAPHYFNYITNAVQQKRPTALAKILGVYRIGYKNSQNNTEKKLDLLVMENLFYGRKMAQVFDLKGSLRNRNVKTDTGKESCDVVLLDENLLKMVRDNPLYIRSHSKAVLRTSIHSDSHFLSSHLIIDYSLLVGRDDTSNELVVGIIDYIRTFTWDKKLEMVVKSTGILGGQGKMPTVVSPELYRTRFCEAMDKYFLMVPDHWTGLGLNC
Chain of Serine/threonine-protein kinase PRP4 homolog (Homo sapiens) (Q13523 whole entry): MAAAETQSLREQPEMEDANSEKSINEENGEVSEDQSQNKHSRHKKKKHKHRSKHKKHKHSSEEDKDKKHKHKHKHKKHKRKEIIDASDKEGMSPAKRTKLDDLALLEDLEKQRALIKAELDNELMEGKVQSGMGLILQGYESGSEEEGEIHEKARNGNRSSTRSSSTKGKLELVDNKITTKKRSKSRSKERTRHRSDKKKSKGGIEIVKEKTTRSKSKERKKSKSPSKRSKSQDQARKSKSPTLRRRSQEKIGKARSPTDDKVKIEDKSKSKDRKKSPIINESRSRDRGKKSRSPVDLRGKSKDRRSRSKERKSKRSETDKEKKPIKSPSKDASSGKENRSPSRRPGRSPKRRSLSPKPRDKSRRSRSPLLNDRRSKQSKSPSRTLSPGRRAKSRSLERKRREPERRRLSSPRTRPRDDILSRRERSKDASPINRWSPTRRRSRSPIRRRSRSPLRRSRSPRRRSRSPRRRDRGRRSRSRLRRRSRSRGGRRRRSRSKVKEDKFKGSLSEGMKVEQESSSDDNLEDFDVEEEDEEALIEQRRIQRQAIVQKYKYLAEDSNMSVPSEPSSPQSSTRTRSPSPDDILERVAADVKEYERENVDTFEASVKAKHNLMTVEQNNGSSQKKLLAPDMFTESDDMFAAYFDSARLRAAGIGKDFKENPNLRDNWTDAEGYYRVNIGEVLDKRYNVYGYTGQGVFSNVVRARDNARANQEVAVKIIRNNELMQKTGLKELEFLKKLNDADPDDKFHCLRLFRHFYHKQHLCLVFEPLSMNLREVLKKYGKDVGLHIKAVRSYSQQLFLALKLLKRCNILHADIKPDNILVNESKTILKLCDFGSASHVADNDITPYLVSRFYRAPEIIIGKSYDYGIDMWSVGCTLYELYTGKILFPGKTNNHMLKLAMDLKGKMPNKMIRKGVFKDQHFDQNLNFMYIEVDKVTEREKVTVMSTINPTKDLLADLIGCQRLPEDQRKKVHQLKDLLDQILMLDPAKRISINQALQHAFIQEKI
Chain of Mast/stem cell growth factor receptor Kit (P10721 whole entry): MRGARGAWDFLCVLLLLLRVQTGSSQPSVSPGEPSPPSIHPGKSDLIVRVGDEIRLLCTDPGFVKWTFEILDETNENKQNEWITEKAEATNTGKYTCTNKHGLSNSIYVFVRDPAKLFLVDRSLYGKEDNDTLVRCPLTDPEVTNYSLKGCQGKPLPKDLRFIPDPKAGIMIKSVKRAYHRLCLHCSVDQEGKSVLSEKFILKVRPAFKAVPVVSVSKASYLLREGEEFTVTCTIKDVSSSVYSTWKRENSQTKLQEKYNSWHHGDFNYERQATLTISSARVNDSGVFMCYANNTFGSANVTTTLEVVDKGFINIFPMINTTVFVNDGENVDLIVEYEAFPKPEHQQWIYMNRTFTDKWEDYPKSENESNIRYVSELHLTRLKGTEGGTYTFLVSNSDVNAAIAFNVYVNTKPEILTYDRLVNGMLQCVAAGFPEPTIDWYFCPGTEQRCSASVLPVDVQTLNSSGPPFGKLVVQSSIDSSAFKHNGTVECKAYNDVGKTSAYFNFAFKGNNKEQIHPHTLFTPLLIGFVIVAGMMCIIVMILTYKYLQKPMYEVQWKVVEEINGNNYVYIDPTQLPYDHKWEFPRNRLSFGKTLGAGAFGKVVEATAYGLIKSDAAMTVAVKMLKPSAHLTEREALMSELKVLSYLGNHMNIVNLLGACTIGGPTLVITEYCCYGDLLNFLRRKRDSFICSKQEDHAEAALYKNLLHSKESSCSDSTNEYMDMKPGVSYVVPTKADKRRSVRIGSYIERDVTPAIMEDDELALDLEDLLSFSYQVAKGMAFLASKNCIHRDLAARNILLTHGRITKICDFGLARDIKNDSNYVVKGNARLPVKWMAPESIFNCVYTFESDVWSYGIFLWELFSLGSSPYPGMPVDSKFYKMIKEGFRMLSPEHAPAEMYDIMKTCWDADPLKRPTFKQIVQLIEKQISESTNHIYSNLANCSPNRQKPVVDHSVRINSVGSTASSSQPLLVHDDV
Chain of G protein-coupled receptor kinase 4 (Homo sapiens) (P32298 whole entry, looked up): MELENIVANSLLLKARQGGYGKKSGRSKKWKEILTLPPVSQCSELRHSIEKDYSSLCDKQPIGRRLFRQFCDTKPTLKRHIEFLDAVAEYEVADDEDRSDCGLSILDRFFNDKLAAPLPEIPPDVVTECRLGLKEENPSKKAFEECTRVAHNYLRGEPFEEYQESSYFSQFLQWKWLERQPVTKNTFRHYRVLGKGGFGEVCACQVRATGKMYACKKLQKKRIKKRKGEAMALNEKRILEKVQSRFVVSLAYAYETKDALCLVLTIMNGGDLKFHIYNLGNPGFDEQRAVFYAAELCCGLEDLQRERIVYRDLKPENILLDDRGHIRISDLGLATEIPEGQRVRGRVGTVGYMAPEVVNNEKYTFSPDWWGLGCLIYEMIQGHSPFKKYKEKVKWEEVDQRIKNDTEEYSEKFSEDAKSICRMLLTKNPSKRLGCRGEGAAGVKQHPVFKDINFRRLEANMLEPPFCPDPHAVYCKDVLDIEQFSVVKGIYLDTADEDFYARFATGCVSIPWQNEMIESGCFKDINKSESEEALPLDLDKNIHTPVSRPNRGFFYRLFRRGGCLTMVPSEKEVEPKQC

COc1cc(N(C)c2ccnc3ccc(C(F)(F)F)cc23)cc(OC)c1OC
% binding [1]: 99%

COCC(=O)NC/C=C/c1ccc2ncnc(Nc3ccc(Oc4ccc(C)nc4)c(C)c3)c2c1 [CP-724714]
% of control [2]: 87%

Nc1cnc(N2CCc3cc(S(=O)(=O)Nc4c(F)cc(Cl)cc4F)cc(N4CCCC4=O)c32)nc1 [TP-020n]
% of control [3]: 100%

Cc1cc([C@@H](C)Nc2ccccc2C(=O)O)c2nc(N3CCOCC3)cc(=O)n2c1 [AZD-6482]
% of control [4]: 91%

Cc1ccc(-c2ccc3c(ccc4sc5c(c43)NC[C@@H](C)NC5=O)n2)cn1
% of inhibition [5]: -6%

CNC(=O)Nc1ccc(-c2nc(N3CC4CCC(C3)O4)c3cnn(C4CCC5(CC4)OCCO5)c3n2)cc1
% of inhibition [6]: 3%

O[C@H]1CC[C@H](Nc2ncc3nc(Nc4c(F)cc(F)cc4F)n([C@H]4CCOC4)c3n2)CC1
% of control [7]: 99%

CC[C@@H]1[C@H](F)C(=O)N[C@@H]1COc1nccc2cc(C(N)=O)c(OC)cc12 [ZIMLOVISERTIB]
% of inhibition [8]: 3.3%
% of inhibition ([9]; at 0.01 µM): 11%
% of inhibition ([9]; at 0.04 µM): 8.8%
% of inhibition ([9]; at 0.2 µM): -0.1%
% of inhibition ([9]; at 1 µM): 21.3%
% of inhibition ([9]; at 5 µM): 29.2%
% of inhibition [10]: -2.26%
% of inhibition [11]: 64.7%

CN(C)CCOc1ccc(-c2nc(-c3ccncc3)c(-c3ccc4c(c3)CC/C4=N\O)[nH]2)cc1
% of control [12]: 94%
